From patent US9918916B2, “Active ingredient comprising a mixture of unsaturated dicarboxylic fatty acids, compositions comprising said ingredient and cosmetic or dermatological uses” (SEDERMA, priority 2014, dated 2018)

What was measured:
Format in all cases: cell-based
G3PDH = G3PDH activity on human adipocytes; conditions: 10 μm
Protocol: In this perspective, in vitro tests aiming to show an increase in adipocyte differentiation (with glycerol-3-phosphate dehydrogenase or G3PDH as the key enzyme of this differentiation) on pre-adipocyte cultures were implemented. Other in vitro assays seek to show slower lipolysis on adipocyte cultures to validate the effectiveness of these compounds. Human pre-adipocytes are seeded and induced to differentiate with a specific mixture of inducers (without indomethacine*) in the presence or absence (negative control) of the products to be tested. After 10 days, the cultures are stopped and the residual […] activity is measured by spectrophotometry on a cellular lysate. […] Results

hyaluronic acid = experiment: Synthesis of hyaluronic acid by human keratinocytes; conditions: 1 μm
Protocol: Human keratinocytes are cultured for 24 h. The cells are contacted with the products to be tested or their excipient for 3 days. The culture supernatants are recovered and a dosage of the amount of hyaluronic acid is achieved. Retinoic acid is used as a positive control. Quantification of cells present on the layer is carried out with the DNA dye (Hoechst 33258), so as to adjust the dosages to the number of cells.

normal human melanocytes = experiment: Inhibition of melanin synthesis on human melanocytes; conditions: 0.01%
Protocol: Normal human melanocytes are cultured in their maintenance medium and then contacted with the products to be tested in the test medium for 10 days. After the contact, melanins are extracted from the cells and assayed by spectrophotometry (490 nm). An estimate of cell number is performed after cultivation using a protein assay by the BCA method. Melanin concentrations are normalized by the sample protein content.

## CCc1ccc(CCOc2ccc(CC3SC(=O)NC3=O)cc2)nc1 (stereo not drawn) [Pioglytazone]
G3PDH
  stimulation of G3PDH activity vs. control (positive control): +712%

## CC1=C(/C=C/C(C)=C/C=C/C(C)=C/C(=O)O)C(C)(C)CCC1 [Retinoic Acid]
Hyaluronic acid
  stimulation of hyaluronic acid synthesis vs. control (positive control): +106%

## OC[C@H]1O[C@@H](Oc2ccc(O)cc2)[C@H](O)[C@@H](O)[C@@H]1O [arbutine]
Normal human melanocytes
  inhibition compared to the control (melanin, positive reference): 33%
